Assay results: patent US20250215030A1, “STAT MODULATORS AND USES THEREOF” (Recludix Pharma, Inc., priority 2022, published 2025)

Experiments:
[1] = molecular target: T1, Recombinant STAT3 protein (STAT3(G127-I722)) (Homo sapiens, UniProt P40763); experiment: STAT3 Fluorescence Polarization (FP) Assay; format: binding; conditions: STAT3(G127-I722) 25 nM, probe 5-FAM-GpYLPQTV-NH2 2 nM, 45-minute incubation
T1 construct: STAT3(G127-I722)
Method in brief: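 STAT3(G127-I722) at 25 nM and 5-FAM-GpYLPQTV-NH2 probe at 2 nM in HEPES pH 7.4 buffer with NaCl, EDTA, Tween 20, DTT; 1% DMSO. FP read after 45 min at room temperature; IC50 by nonlinear regression of mP vs log concentration, binned A ≤100 nM to D >10 μM.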

[2] = molecular target: T2, Recombinant STAT6 protein (STAT6(W123-T658)) (Homo sapiens, UniProt P42226); experiment: STAT6 Fluorescence Polarization (FP) Assay; format: binding; conditions: STAT6(W123-T658) 250 nM, probe 5-FAM-ApYKPFQDLI-NH2 2 nM, 45-minute incubation
T2 construct: STAT6(W123-T658)
T2 sequence (P42226 123-658): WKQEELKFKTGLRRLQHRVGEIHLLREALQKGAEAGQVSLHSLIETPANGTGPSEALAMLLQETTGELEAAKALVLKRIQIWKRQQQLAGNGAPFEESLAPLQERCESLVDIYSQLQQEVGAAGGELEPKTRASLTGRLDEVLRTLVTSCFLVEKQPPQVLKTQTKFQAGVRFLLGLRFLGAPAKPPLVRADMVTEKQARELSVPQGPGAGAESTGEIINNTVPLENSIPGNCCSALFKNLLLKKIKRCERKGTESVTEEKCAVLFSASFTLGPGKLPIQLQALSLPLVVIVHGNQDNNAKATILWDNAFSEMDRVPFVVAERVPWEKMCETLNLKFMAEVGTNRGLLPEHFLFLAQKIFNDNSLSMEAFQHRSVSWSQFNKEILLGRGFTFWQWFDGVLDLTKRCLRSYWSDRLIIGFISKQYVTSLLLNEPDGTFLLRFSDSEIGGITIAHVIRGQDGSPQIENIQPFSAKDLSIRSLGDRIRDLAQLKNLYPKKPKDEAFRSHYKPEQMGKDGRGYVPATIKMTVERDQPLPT
Method in brief: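 STAT6 (W123-T658) at 250 nM mixed with 2 nM 5-FAM-ApYKPFQDLI-NH2 probe in HEPES pH 7.4 buffer with DTT and Tween 20, 1% DMSO final. Polarization read after 45 min at room temperature; IC50 by nonlinear regression of mP versus log concentration, reported in bins A–D.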

T1 sequence (P40763 127-722, species assumed): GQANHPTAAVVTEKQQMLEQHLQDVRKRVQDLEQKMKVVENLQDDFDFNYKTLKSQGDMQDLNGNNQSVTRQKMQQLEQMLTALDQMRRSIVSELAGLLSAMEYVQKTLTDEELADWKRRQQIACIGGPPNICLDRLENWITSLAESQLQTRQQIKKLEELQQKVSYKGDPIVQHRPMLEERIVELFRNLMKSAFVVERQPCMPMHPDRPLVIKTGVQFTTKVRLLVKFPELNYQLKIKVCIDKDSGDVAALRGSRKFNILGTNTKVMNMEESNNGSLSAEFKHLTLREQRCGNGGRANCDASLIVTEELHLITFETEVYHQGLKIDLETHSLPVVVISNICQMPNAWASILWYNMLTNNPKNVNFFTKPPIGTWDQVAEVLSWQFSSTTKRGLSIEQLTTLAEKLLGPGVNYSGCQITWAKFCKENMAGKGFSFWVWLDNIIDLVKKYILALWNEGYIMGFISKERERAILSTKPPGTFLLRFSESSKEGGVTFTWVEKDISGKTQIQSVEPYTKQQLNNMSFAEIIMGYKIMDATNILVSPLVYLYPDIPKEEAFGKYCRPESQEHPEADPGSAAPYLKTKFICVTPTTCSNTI

IC50 [1] [µM] | IC50 [2] [µM] | Compound
0.1 to 1 | > 30 | Cc1ccncc1C1CN(C(=O)[C@@H]2CC[C@@H]3C[C@H]4C[C@H]4C[C@H](NC(=O)c4cc5cc(CP(=O)(O)O)ccc5s4)C(=O)N32)C1 [Example 277, ((2-(((3S,6S,7aS,8aR,9aR)-3-(3-(4-methylpyridin-3-yl)azetidine-1-carbonyl)-5-oxodecahydro-1H-cyclopropa[d]pyrrolo[1,2-a]azocin-6-yl)carbamoyl)benzo[b]thiophen-5-yl)methyl)phosphonic acid]
0.1 to 1 | > 30 | Cc1ccncc1N1C[C@H](NC(=O)[C@@H]2CC[C@@H]3C[C@H]4C[C@H]4C[C@H](NC(=O)c4cc5cc(CP(=O)(O)O)ccc5s4)C(=O)N32)[C@@H](F)C1 [Example 278, ((2-(((3S,6S,7aS,8aR,9aR)-3-(((3S,4S)-4-fluoro-1-(4-methylpyridin-3-yl)pyrrolidin-3-yl)carbamoyl)-5-oxodecahydro-1H-cyclopropa[d]pyrrolo[1,2-a]azocin-6-yl)carbamoyl)benzo[b]thiophen-5-yl)methyl)phosphonic acid]
> 10 | > 30 | O=C(N[C@H]1C[C@@H]2C[C@@H]2C[C@H]2CC[C@@H](C(=O)N[C@H]3CN(c4cncnc4)C[C@@H]3F)N2C1=O)c1cc2cc(CP(=O)(O)O)ccc2s1 [Example 279, ((2-(((3S,6S,7aS,8aR,9aR)-3-(((3S,4S)-4-fluoro-1-(pyrimidin-5-yl)pyrrolidin-3-yl)carbamoyl)-5-oxodecahydro-1H-cyclopropa[d]pyrrolo[1,2-a]azocin-6-yl)carbamoyl)benzo[b]thiophen-5-yl)methyl)phosphonic acid]
< 0.1 | 3 to 30 | Cc1ccncc1C1CN(C(=O)[C@@H]2CC[C@@H]3C[C@H]4C[C@H]4C[C@H](NC(=O)c4cc5cc(C(F)P(=O)(O)O)ccc5s4)C(=O)N32)C1 (stereo partly drawn) [Example 280, (fluoro(2-(((3S,6S,7aS,8aR,9aR)-3-(3-(4-methylpyridin-3-yl)azetidine-1-carbonyl)-5-oxodecahydro-1H-cyclopropa[d]pyrrolo[1,2-a]azocin-6-yl)carbamoyl)benzo[b]thiophen-5-yl)methyl)phosphonic acid]
< 0.1 | 3 to 30 | Cn1cc(C2CN(C(=O)[C@@H]3CC[C@@H]4C[C@H]5C[C@H]5C[C@H](NC(=O)c5cc6cc(C(F)(F)P(=O)(O)O)ccc6s5)C(=O)N43)C2)cn1 [Example 282, (difluoro(2-(((3S,6S,7aS,8aR,9aR)-3-(3-(1-methyl-1H-pyrazol-4-yl)azetidine-1-carbonyl)-5-oxodecahydro-1H-cyclopropa[d]pyrrolo[1,2-a]azocin-6-yl)carbamoyl)benzo[b]thiophen-5-yl)methyl)phosphonic acid]
< 0.1 | 3 to 30 | O=C(N[C@H]1C[C@@H]2C[C@@H]2C[C@H]2CC[C@@H](C(=O)N3CC(c4nccs4)C3)N2C1=O)c1cc2cc(C(F)(F)P(=O)(O)O)ccc2s1 [Example 286, (difluoro(2-(((3S,6S,7aS,8aR,9aR)-5-oxo-3-(3-(thiazol-2-yl)azetidine-1-carbonyl)decahydro-1H-cyclopropa[d]pyrrolo[1,2-a]azocin-6-yl)carbamoyl)benzo[b]thiophen-5-yl)methyl)phosphonic acid]
< 0.1 | 3 to 30 | O=C(N[C@H]1C[C@@H]2C[C@@H]2C[C@H]2CC[C@@H](C(=O)N3CC(c4cn[nH]c4)C3)N2C1=O)c1cc2cc(C(F)(F)P(=O)(O)O)ccc2s1 [Example 288, ((2-(((3S,6S,7aS,8aR,9aR)-3-(3-(1H-pyrazol-4-yl)azetidine-1-carbonyl)-5-oxodecahydro-1H-cyclopropa[d]pyrrolo[1,2-a]azocin-6-yl)carbamoyl)benzo[b]thiophen-5-yl)difluoromethyl)phosphonic acid]
